The source made the active and inactive calls. The rule behind the calls is not given here.

Consider six molecules from ChEMBL document CHEMBL1158667, “Agelasines H and I, 9-methyladenine-containing diterpenoids from an Agelas sponge” (J Nat Prod, 1998).

Holding throughout (format): functional, organism-based
The subject of assay [1] is Saccharomyces cerevisiae. As to the kind of experiment: Antimicrobial activity against Saccharomyces cerevisiae ATCC 18824 at 200 ug/mL.
The test system of assay [2] is Saccharomyces cerevisiae. In words: Antimicrobial activity against Saccharomyces cerevisiae ATCC 18824 at 10 ug/mL.
Assay [3] concerns Pseudomonas aeruginosa. In words: Antimicrobial activity against Pseudomonas aeruginosa ATCC 15442 at 200 ug/mL.
Assay [4] has as its system Staphylococcus aureus. In words: Antimicrobial activity against Staphylococcus aureus ATCC 6538 at 200 ug/mL.
Assay [5] has as its system Aspergillus niger. In words: Antimicrobial activity against Aspergillus niger ATCC 9642 at 200 ug/mL.
Assay [6] concerns Aspergillus niger. In words: Antimicrobial activity against Aspergillus niger ATCC 9642 at 1 ug/mL.
For assay [7], the system named is Saccharomyces cerevisiae. As to the kind of experiment: Antimicrobial activity against Saccharomyces cerevisiae ATCC 18824 at 100 ug/mL.
In assay [8] the test system is Saccharomyces cerevisiae. As to the kind of experiment: Antimicrobial activity against Saccharomyces cerevisiae ATCC 18824 at 1 ug/mL.
Assay [9] deals with Aspergillus niger. As to the kind of experiment: Antimicrobial activity against Aspergillus niger ATCC 9642 at 10 ug/mL.
Assay [10] has as its system Pseudomonas aeruginosa. In words: Antimicrobial activity against Pseudomonas aeruginosa ATCC 15442 at 100 ug/mL.
The subject of assay [11] is Pseudomonas aeruginosa. As to the kind of experiment: Antimicrobial activity against Pseudomonas aeruginosa ATCC 15442 at 10 ug/mL.
Assay [12] concerns Pseudomonas aeruginosa. As to the kind of experiment: Antimicrobial activity against Pseudomonas aeruginosa ATCC 15442 at 1 ug/mL.
Assay [13] deals with Staphylococcus aureus. As to the kind of experiment: Antimicrobial activity against Staphylococcus aureus ATCC 6538 at 100 ug/mL.
The subject of assay [14] is Staphylococcus aureus. In words: Antimicrobial activity against Staphylococcus aureus ATCC 6538 at 10 ug/mL.
For assay [15], the system named is Staphylococcus aureus. As to the kind of experiment: Antimicrobial activity against Staphylococcus aureus ATCC 6538 at 1 ug/mL.
For assay [16], the system named is Aspergillus niger. In words: Antimicrobial activity against Aspergillus niger ATCC 9642 at 100 ug/mL.

On to `C=C1[C@H](O)CC[C@H]2[C@](C)(CC/C(C)=C/Cn3c[n+](C)c4ncnc(N)c43)[C@@H](C)CC[C@@]12C`, for which the outcome with Saccharomyces cerevisiae [1] was Active.

Take `C/C(=C\Cn1c[n+](C)c2ncnc(N)c21)CC[C@]1(C)[C@@H](C)CC[C@@]2(C)C(COC(=O)c3ccc[nH]3)=CCC[C@@H]12`: the outcome in the assay with Saccharomyces cerevisiae [1], in the assay on Pseudomonas aeruginosa [3], with Staphylococcus aureus [4] and with Aspergillus niger [5] was inactive. The outcome in the assay on Saccharomyces cerevisiae [2] was Active.

For `CC1=CCC[C@@H]2[C@@](C)(CC/C(C)=C/Cn3c[n+](C)c4ncnc(N)c43)[C@H](C)CC[C@@]12C`, the result in the assay on Saccharomyces cerevisiae [1], in the assay with Pseudomonas aeruginosa [3], with Staphylococcus aureus [4] and in the assay on Aspergillus niger [5] was inactive. The result with Saccharomyces cerevisiae [2] was Active.

Consider `C/C(=C\Cn1c[n+](C)c2ncnc(N)c21)CC[C@]1(C)[C@@H](C)CC[C@@]2(C)C(CO)=CCC[C@@H]12`, for which the result in the assay on Aspergillus niger [6], in the assay on Saccharomyces cerevisiae [1], with Saccharomyces cerevisiae [7], in the assay with Saccharomyces cerevisiae [2], in the assay with Saccharomyces cerevisiae [8] and with Aspergillus niger [9] was inactive. Further, the result in the assay with Pseudomonas aeruginosa [3], with Pseudomonas aeruginosa [10], with Pseudomonas aeruginosa [11], in the assay on Pseudomonas aeruginosa [12], in the assay with Staphylococcus aureus [4] and with Staphylococcus aureus [13] was inactive. Further, the outcome with Staphylococcus aureus [14], with Staphylococcus aureus [15], with Aspergillus niger [5] and in the assay with Aspergillus niger [16] was inactive.

With `CC1=CCC[C@H]2[C@](C)(CC/C(C)=C/Cn3c[n+](C)c4ncnc(N)c43)[C@@H](C)CC[C@@]12C`, the result with Aspergillus niger [6], in the assay with Saccharomyces cerevisiae [1], in the assay on Saccharomyces cerevisiae [7], with Saccharomyces cerevisiae [2], with Saccharomyces cerevisiae [8] and in the assay with Aspergillus niger [9] was inactive. The result in the assay with Pseudomonas aeruginosa [3], with Pseudomonas aeruginosa [10], in the assay on Pseudomonas aeruginosa [11], in the assay on Pseudomonas aeruginosa [12], in the assay on Staphylococcus aureus [4] and with Staphylococcus aureus [13] was inactive. For the same molecule, the outcome in the assay with Staphylococcus aureus [14], in the assay with Staphylococcus aureus [15], in the assay on Aspergillus niger [5] and in the assay on Aspergillus niger [16] was inactive.

`CC1=CCC[C@H](C)[C@@]1(C)CC/C(C)=C/CC/C(C)=C/Cn1c[n+](C)c2ncnc(N)c21`: the result with Saccharomyces cerevisiae [2] and in the assay on Aspergillus niger [16] was Active.
